This note sets out measurements from patent US7521535B2, “Anti-microbial defensin-related peptides and methods of use” (priority 2006, dated 2009).

“Also recorded” adds a separate entry of the source. Positions of bridges follow the written chain, without caps; N, C: chain ends. Chains are numbered I, II in the order given. No end group written: not given here.

In data set [1] the test system is bacteria. The data set is described as follows: preliminary antibacterial studies, reduced versus refolded rattusin. The class given is cell-based. The following applies: data not shown. The text has this:
Similar to several α- and β-defensins (49-52), the central cysteine-rich motif of rattusin is flanked by long flexible N- and C-terminal tails, which are primarily composed of charged and uncharged polar residues (Table 2). The impact of N- and C-terminal tails and five cysteines of rattusin on its antibacterial, cytotoxic, chemotactic, and immuno-modulatory functions is investigated.

The subject of data set [2] is E. coli O157:H7. The data set is described as follows: effect of Mg2+ on antibacterial activity. The class given is cell-based. To be noted: 4 μM peptide, 0, 1, 2 and 5 mM MgCl2, 4 h. On the procedure: (§1) FIG. 7. Effect of Mg^2+ on the antibacterial activity of rattusin and cryptdin-4 against S. aureus (A) and E. coli O157:H7 (B). S. aureus or E. coli were incubated with rattusin, cryptdin-4, or an equal volume of 0.01% acetic acid (no peptide) in 25 mM sodium phosphate buffer, containing 1% TSB with 0, 1, 2 and 5 mM MgCl2, pH 7.4, for 4 h. Surviving bacteria were plated and counted. Both peptides were used at identical concentrations for each bacterial strain (2 and 4 μM against S. aureus and E. coli, respectively). Data shown are means ± SEM of 2-3 independent experiments.
(§2) The effect of Mg^2+ on the antibacterial activity was studied by incubating rattusin and cryptdin-4 for 4 h with 90 μl of 5×10^5 CFU/ml Staphylococcus aureus at a concentration of 2 μM each or with E. coli O157:H7 at a concentration of 4 μM each in 1% TSB, 25 mM sodium phosphate buffer, containing 0, 1, 2 and 5 mM of MgCl2, pH 7.4.

For data set [3], the system named is E. coli O157:H7 ATCC 700728. The data set is described as follows: kinetics of bacterial killing, colony counting assay. The class given is cell-based. To be noted: 4 μM peptide; for killing of E. coli: no NaCl, within 2 h. The procedure: FIG. 4. Kinetics of killing of E. coli O157:H7 in the absence (A) and presence (B) of 100 mM NaCl by rattusin, cryptdin-4 and HD-5. E. coli O157:H7 ATCC 700728 was incubated with 4 μM rattusin, cryptdin-4, HD-5, or an equal volume of 0.01% acetic acid (no peptide) in duplicate in 25 mM sodium phosphate buffer, pH 7.4, 1% TSB with and without 100 mM NaCl for 10, 30, 60, 120 and 240 min. Surviving bacteria were plated and counted. Data shown are means ± SEM of two independent experiments.
(§3) To study the kinetics of bacterial killing, a standard colony counting assay was used as described (26). Rattusin and cryptin-4 were incubated with 90 μl of 5×10^5 CFU/ml Staphylococcus aureus ATCC 25923 at the concentration of 2 μM each or with E. coli O157:H7 at the concentration of 4 μM each in 25 mM sodium phosphate buffer, pH 7.4, with and without 100 mM NaCl. The reaction was incubated at 37° C. for 10, 30, 60, 120 and 240 min and diluted rapidly with ice-cold PBS and plated immediately. Plates were incubated at 37° C. for 14-18 hours and viable bacteria were counted.

For data set [4], the system named is E. coli O157:H7. The data set is described as follows: effect of salinity on antibacterial activity. To be noted: 4 μM peptide, 4 h, up to 200 mM NaCl. The class given is cell-based. The procedure: (§4) FIG. 6. Effect of salinity on the antibacterial activity of rattusin against S. aureus (A) and E. coli O157:H7 (B). S. aureus and E. coli were incubated with 2 and 4 μM of rattusin, or an equal volume of 0.01% acetic acid (no peptide) in 25 mM sodium phosphate buffer, pH 7.4, 1% TSB with increasing concentrations of NaCl, for 4 h. Surviving bacteria were plated and counted. Data shown are means ± SEM of two independent experiments.

For data set [5], the system named is S. aureus. The data set is described as follows: effect of salinity on antibacterial activity. The class given is cell-based. To be noted: 2 μM peptide, 4 h, up to 200 mM NaCl. The procedure:
as §4

Data set [6] deals with Caco-2 cells. The data set is described as follows: cytotoxicity assay, alamarBlue dye. The class given is cell-based, human. The following applies: 100 μM peptide, 24 h, DMEM with and without 10% FBS. The procedure: FIG. 8. Absence of cytotoxicity of rattusin and cryptdin-4 to Caco-2 cells. Cells were incubated with 100 μM of rattusin, cryptdin-4 or fowlicidin-1 for 24 h in DMEM with and without 10% fetal bovine serum for 24 hours. Cell viability was measured with an alamarBlue dye-based method. Data are representative of two independent experiments done in duplicate.
Cytotoxicity against human colon adenocarcinoma (CACO-2) cell line (ATCC, Manassas, Va.) was measured using alamarBlue dye (Biosource, Camarillo, Calif.) as described previously (26, 27). Briefly, CACO-2 cells were seeded into 96 well plate at 5×10^4 in Dulbecco's modified Eagle's medium (DMEM) with 10% FBS and were grown overnight. The next day cells were washed once with DMEM followed by the addition of fresh DMEM with and without 10% FBS and 100 μM of rattusin or cryptdin-4 or fowlicidin-1. […] The plate was read with excitation at 545 nm and emission at 590 nm. The percentage of cell death was calculated as [1−(Fpeptide−Fbackground)/(Facetic acid−Fbackground)]×100, where Fpeptide is the fluorescence of cells exposed to 100 μM peptide, Facetic acid is the fluorescence of cells exposed to 0.01% acetic acid only, and Fbackground is the background fluorescence of 10% alamarBlue dye in cell culture medium without cells.
For orientation: The colour change of resazurin is a common sign of viable cells or microbes.

Data set [7] concerns S. aureus. As to the kind of experiment: effect of Mg2+ on antibacterial activity. The class given is cell-based, Staphylococcus aureus. To be noted: 2 μM peptide, 0, 1, 2 and 5 mM MgCl2, 4 h. The procedure:
as §1, §2

Data set [8] deals with S. aureus ATCC 25923. The data set is described as follows: kinetics of bacterial killing, colony counting assay. The class given is cell-based, Staphylococcus aureus. To be noted: 2 μM peptide. On the procedure:
FIG. 5. Kinetics of killing of S. aureus in the absence (A) and presence (B) of 100 mM NaCl by rattusin, cryptdin-4 and HD-5. S. aureus ATCC 25923 was incubated with 2 μM rattusin, cryptdin-4, HD-5, or an equal volume of 0.01% acetic acid (no peptide) in duplicate in 25 mM sodium phosphate buffer, pH 7.4, 1% TSB with and without 100 mM NaCl for 10, 30, 60, 120 and 240 min. Surviving bacteria were plated and counted. Data shown are means ± SEM of two independent experiments.
as §3

For data set [9], the system named is representative Gram-positive and Gram-negative bacteria. The data set is described as follows: modified broth microdilution assay, summary over strains. The class given is cell-based. The following applies: 100 mM NaCl versus no NaCl. The procedure: All bacterial strains were purchased from either MicroBiologics (St. Cloud, Minn.) or ATCC (Manassas, Va.). Bacteria were grown in trypticase soy broth (TSB) overnight and subcultured in the same broth for 3-4 h at 37° C. in a shaking incubator to the mid log phase. To study the antibacterial spectrum, a modified broth microdilution assay was used as described (26). Briefly, the mid log phase bacteria were washed with 25 mM sodium phosphate buffer, pH 7.4, and suspended in 5% TSB in 25 mM sodium phosphate, pH 7.4, to 5×10^5 CFU/ml with and without 100 mM NaCl. Bacteria (90 μl) were then dispensed in a 96-well plate, followed by addition of peptides (10 μl) serially diluted in 0.01% acetic acid. After overnight incubation at 37° C., the minimum inhibitory concentration (MIC) of each peptide was determined as the lowest concentration that gave no visible bacterial growth.
Refolded rattusin was then used to study its antibacterial activity against representative Gram-positive and Gram-negative bacteria by a modified broth microdilution assay with and without 100 mM NaCl.

For the molecule “LRVRRTLQCSCRRVCRNTCSCIRLSRSTYAS [reduced peptide, rattusin in the reduced form, without disulfide bonds]”, the “antibacterial activity in high salt” value in [1] is “lost significant activities”.

Consider “I: LRVRRTLQCSCRRVCRNTCSCIRLSRSTYAS / II: LRVRRTLQCSCRRVCRNTCSCIRLSRSTYAS (disulfide I:9-II:21, I:11-II:19, I:15-II:15, I:19-II:11, I:21-II:9) [Rattusin]”, for which the “activity against E. coli in the presence of MgCl2” value in data set [2] is “largely unaffected”. In data set [3], the “killing of E. coli in the presence of 100 mM NaCl” value is on record as “slightly delayed with a complete killing occurring at 4 h” and the “killing of E. coli” value is reported as “three logs”. Besides, the “antibacterial activity with increasing concentrations of NaCl” value in [4] is “maintained antibacterial activity”. Also, the “antibacterial activity with increasing concentrations of NaCl” value in [5] is listed as “maintained antibacterial activity”. Moreover, in [6], the “cytotoxicity to Caco-2 cells” value is reported as “no cytotoxicity”. Further, in data set [7], the “effect of Mg2+ on activity against S. aureus” value is “did not inhibit; also recorded: potentiated”. Further, the “killing of S. aureus in the presence of 100 mM NaCl” value in data set [8] was “largely unaffected”. The “antibacterial activity in the presence of 100 mM NaCl” value in data set [9] is given as “remained largely unchanged”.

B1: HD-5 (peptide, UniProt Q01523 20-94, looked up)
Defensin alpha 5: ESLQERADEATTQKQSGEDNQDLAISFAGNGLSALRTSGSQARATCYCRTGRCATRESLSGVCEISGRLYRLCCR
modifications: Defensin-5
For B1, in data set [3], the “killing of E. coli in the presence of 100 mM NaCl” value is “completely inactivated” and the “killing of E. coli” value was “three logs”. Further, the “killing of S. aureus in the presence of 100 mM NaCl” value in [8] is listed as “significantly inhibited”.
